# In publication PMC5874719, “A π-Halogen Bond of Dibenzofuranones with the Gatekeeper Phe113 in Human Protein Kinase CK2 Leads to Potent Tight Binding Inhibitors” (Pharmaceuticals, 2018):
# Key:
# [1] = system: caspases 3 and 7 in LNCaP cells; assay: Caspase-Glo 3/7 assay; format: cell-based, human; conditions: for caspase 3/7 activity: 50 µM, 48 h; for caspase 3/7 activity, maximum obtained: 25 or 50 µM, 24 or 48 h
# From the text: Reducing the activity of CK2 by the inhibitors is supposed to overcome the antiapoptotic effect of the enzyme and cells are induced to undergo apoptosis. […] In consequence, we analyzed in the next experiments whether the cells were killed by apoptosis. Hallmark of apoptosis is the activation of the key effector caspases 3 and 7 which ends in the cleavage of poly (ADP ribose) polymerase PARP1. The full-length PARP1 is cleaved by the caspases to an 89 and a 24 kDa fragment. These events of late apoptotic signaling were analyzed in ARPE19 and LNCaP cells grown in the presence and in the absence of dibenzofurans. Inhibitor concentrations of 25 and 50 µM were used and were applied for 24 and 48 h. In cell lysates of LNCaP and ARPE19 cells the activity of caspases 3 and 7 was determined subsequently by a luminescence based assay (Figure 6A).
# (§1) (A) ARPE19 or LNCaP cells were treated with DMSO as control (0 μM) or with 25 or 50 μM 4b, 4a or 5 for 24 or 48 h. Activity of caspases 3 and 7 was determined using the luminescent Caspase-Glo® 3/7 assay according to the technical bulletin of the manufacturer. Median relative light units (RLU) + standard deviation from at least three independent experiments are shown in the bar graph. (B) Cells were treated as described before. 75 μg cell extract was separated in a 10% SDS polyacrylamide gel and analyzed in a Western blot analysis with a rabbit polyclonal antibody against PARP1. + is a positive control for PARP cleavage.
# The activity of the apoptotic key effector caspases 3 and 7 in cell extracts was determined using the Caspase-Glo 3/7 assay according to the protocol of the manufacturer (Promega, Mannheim, Germany).
# LNCaP cells = assay: MTT viability assay; format: cell-based; conditions: Homo sapiens, 24 h, DMSO as reference, read-out: cell viability
# Protocol: Protein kinase CK2 is essential for the survival of cells. Therefore, we tested the impact of the CK2 inhibitors on the viability of cells in both lines. The inhibitors were applied in increasing concentrations up to 50 µM to growing cell cultures and the viability was analyzed by a MTT assay after 24 h of treatment. The effect of the compounds on the growth of the normal ARPE19 cells was rather moderate (Figure 5A). 5 had no impact on ARPE19 cell viability. 4b reduced the viability to 70% in its highest concentration and 4a exerted the strongest influence by reducing the ratio of viable cells to 40% when applying a 50 µM dose. In contrast LNCaP cells were strongly impaired by the treatment with the dibenzofurans (Figure 5B): Using 10 µM of the different inhibitors, we only observed an effect with 4b. However, increasing the concentration to 20, 25 and 50 µM exerted a drastic impact on the viability of LNCaP cells. With 50 µM 4b a viability rate of final 5% was obtained, whereas 4a and 5 reduced the viability to 30 to 35%. Thus, the inhibitors in particular affected the viability of LNCaP carcinoma cells, but not of normal retinal pigment epithelium cells. […] Even after 48 h of growth under CK2 inhibition ARPE19 cells appeared rather unaffected by the treatment. […]
# Figure 5 Effects of dibenzofuran inhibitors on cell viability. […] Cell viability was determined using the MTT assay after 24 h of incubation. […]
# ARPE19 cells (ATCC Number: CRL-2302), retinal pigment epithelia (RPE) cells, were maintained at 37 °C and 5% CO2 in Dulbecco’s modified Eagles medium (DMEM) supplemented with 2 mM L-glutamine, 1 mM gentamicin and 10% fetal calf serum (FCS) at 37 °C in an atmosphere enriched with 5% CO2. […] For the evaluation of cell morphology ARPE19 and LNCaP cells were analysed with bright field microscopy using a Axiovert microscope from Zeiss (Jena, Germany).
# Cell proliferation and viability was determined using a colorimetric MTT-based assay (MTT: 3-[4,5-dimethylthiazol-2-yl]-2,5-diphenyl tetrazolium bromide, Sigma-Aldrich, Deisenhofen, Germany) as described in [72]. […]
# PARP1 in LNCaP cells = assay: PARP1 cleavage, Western blot; format: cell-based, human
# Protocol: as §1, with “Figure 6 Induction of apoptosis in prostate cancer cell line LNCaP and non-neoplastic retinal pigment epithelial cell line ARPE19. (A)” for “(A)”
# In addition to the luminescence assay, Western blot analysis was performed to check PARP1-cleavage (Figure 6B). Therefore specific antibodies for the detection of the full-length PARP1 (113 kDa) and the larger cleavage fragment of PARP1 (89 kDa) were used. In ARPE19 cells no cleavage product of PARP1 was detectable.
# Proteins were separated by SDS polyacrylamide gel electrophoresis and blotted onto a PVDF membrane. After blocking (1 h with PBS-Tween20 with 5% dry milk) the membrane was incubated with appropriate dilutions of primary antibodies in PBS-Tween20 with 1% dry milk for another hour at room temperature or at 4 °C overnight. Then the membrane was washed twice for 10 min with PBS-Tween20 with 1% dry milk. Incubation with the peroxidase-coupled secondary antibody (anti-rabbit 1:30,000, anti-mouse 1:10,000) followed for 1 h. The membrane was washed again twice for 10 min with PBS-Tween20. Signals were developed and visualized by the Lumilight system of Roche Diagnostics GmbH. For the detection of the apoptose marker protein PARP we used a polyclonal PARP antibody (Cell Signaling Technology, Frankfurt, Germany), a GAPDH specific antibody (Santa Cruz Biotechnologies, Dallas, TX, USA) was used for loading control. […]
Compound,caspase 3/7 activity [1],viability at 50 µM (LNCaP cells) [%],PARP1 cleavage (PARP1 in LNCaP cells; 50 µM),"caspase 3/7 activity, maximum obtained [1]","PARP1 cleavage (PARP1 in LNCaP cells; 25 or 50 µM, 24 or 48 h)"
"Cc1ccc(NC=C2C(=O)CCc3c2oc2c(Cl)c(Cl)c(O)cc32)cc1 [4b, 6,7-dichloro-1,4-dihydro-8-hydroxy-4-[(4-methylphenylamino)methylene]dibenzo[b,d]furan-3(2H)-one]","> 50,000 RLU",5,cleavage of PARP1,,
"COc1ccc(/N=C/c2c(O)ccc3c2oc2cc(Cl)c(O)c(Cl)c23)cc1 [compound 5, (E)-1,3-dichloro-6-[(4-methoxyphenylimino)methyl]dibenzo[b,d]furan-2,7-diol]","> 50,000 RLU",30 to 35,cleavage of PARP1,"55,000 RLU",
"COc1ccc(N/C=C2\C(=O)CCc3c2oc2cc(Cl)c(O)c(Cl)c32)cc1 [4a, 7,9-dichloro-1,2-dihydro-8-hydroxy-4-[(4-methoxyphenylamino)methylene]dibenzo[b,d]furan-3(2H)-one]",,30 to 35,,"17,000 RLU",did not result in cleavage of PARP1
